# Experimental data as given in US5405873A, “Substituted acetamide derivatives” (Banyu Pharmaceutical Co., Ltd., priority 1992, dated 1995).
# Tested on: absorption of cholesterol
# Assay: Cholesterol absorption inhibitory activity in rat
# Type: in vivo, Sprague-Dawley rats
# Settings: 100 mg/kg oral; [3H] cholesterol emulsion; serum radioactivity 4 hours after administration
# Procedure: Cholesterol absorption inhibitory activity is determined by the method described in Fukushima et al., Journal of Atherosclerosis Research, 10, 403 (1969).
# That is, Sprague-Dawley rats of 7 weeks age weighing 200 to 250 g are divided into groups at random and fed for 7 days with free access to diet. Then, the compound of the present invention and [^3 H] cholesterol emulsion (suspension of 6.96 mg of cholesterol and 177 mg of triolein in 0.8 ml of 6.8% skimmed milk aqueous solution) prepared into a dose indicated are forcedly given orally (Experiment Group).
# As a control group, the solvent used to suspend the compound of the present invention instead of the compound of the present invention in Experiment Group and [^3 H] cholesterol emulsion are forcedly administered orally.
# Four hours after administration, blood is collected from the tail. The cholesterol absorption inhibitory activity of the compound is determined in terms of the radiation activity of [^3 H) observed in serum by comparing between the control group and the experiment group. Inhibition rate (%) at 100 mg/kg is calculated and the results are shown in the following table together with the result of YM-17E used as a reference compound.
row,SMILES,Inhibition Rate at 100 mg/kg [%]
1,"CCCCCN(C/C=C/C#CC(C)(C)C)CCNC(=O)CSc1ccc2ccccc2c1 [Example 6, (E)-N-[2-[N'-Pentyl-(6,6-dimethyl-2-hepten-4-ynyl)amino]ethyl]-(2-naphthylthio)acetamide]",73
2,"CN(C)c1ccc(NC(=O)N(Cc2cccc(CN(C(=O)Nc3ccc(N(C)C)cc3)C3CCCCCC3)c2)C2CCCCCC2)cc1.Cl.Cl [YM-17E, 1,3-bis[[1-cycloheptyl-3-(p-dimethylaminophenyl)ureido]methyl]-benzene dihydrochloride, reference compound]",63

# Tested on: ACAT
# Assay: ACAT inhibitory activity (rabbit liver microsomal fraction)
# Type: biochemical, Japanese-White Rabbit
# Settings: [1-14C]oleyl-CoA and exogenous cholesterol
# Procedure: Enzyme specimen ACAT is prepared from liver microsomal fraction of Japanese-White Rabbit in accordance with the method described in Smith et al., Clinica Chimica Acta, 158, 271 (1986). The ACAT activity is determined by measuring the amount of labeled cholesterol esters from [1-^14 C]oleyl-CoA and exogenous cholesterol also according to the method of Smith et al., ibid. Thus, inhibition rates (%) of the compounds of the present invention against ACAT at a concentration of 0.3 μM are shown in the following table, together with the results of Melinamide (N-(α-methylbenzyl)linoleamide) and YM-17E (1,3-bis[[1-cycloheptyl-3-(p-dimethylaminophenyl)ureido]methyl]-benzene dihydrochloride), as reference compounds, measured at the same time.
row,SMILES,Inhibition Rate at 0.3 μM [%]
1,"CCCCCN(C/C=C/C#CC(C)(C)C)CCNC(=O)CSc1cccc2ccccc12 [Example 1, (E)-N-[2-[N'-Pentyl-(6,6-dimethyl-2-hepten-4-ynyl)amino]ethyl]-(1-naphthylthio)acetamide]",70
2,"CCCCCN(CC#CC#CC(C)(C)C)CCNC(=O)CSc1cccc2ccccc12 [Example 2, N-[2-[N'-Pentyl-(6,6-dimethyl-2,4-heptadiynyl)amino]ethyl]-(1-naphthylthio)acetamide]",76
3,"CCCCCN(CCCC#CC(C)(C)C)CCNC(=O)CSc1cccc2ccccc12 [Example 3, N-[2-[N'-Pentyl-(6,6-dimethyl-4-heptynyl)amino]ethyl]-(1-naphthylthio)acetamide]",68
4,"CCCCCN(CC#CC#CC(C)(C)C)CCNC(=O)CSc1ccc2ccccc2c1 [Example 4, N-[2-[N'-Pentyl-(6,6-dimethyl-2,4-heptadiynyl)amino]ethyl]-(2-napthylthio)acetamide]",78
5,"CCCCCN(CC#CC#CC(C)(C)C)CCNC(=O)CSc1ccc(C)c(C)c1 [Example 10, N-[2-[N'-Pentyl-(6,6-dimethyl-2,4-heptadiynyl)amino]ethyl]-(3,4-dimethylphenylthio)acetamide]",84
6,"CCCCCN(CC#CC#CC(C)(C)C)CCNC(=O)CSc1c(C)cccc1C [Example 11, N-[2-[N'-Pentyl-(6,6-dimethyl-2,4-heptadiynyl)amino]ethyl]-(2,6-dimethylphenylthio)acetamide]",87
7,"CCCCCN(CC#CC#CC(C)(C)C)CCNC(=O)CSc1ccc2oc3ccccc3c2c1 [Example 24, N-[2-[N'-Pentyl-(6,6-dimethyl-2,4-heptadiynyl)amino]ethyl]-(2-dibenzofuranylthio)acetamide]",64
8,"CCCCCN(CC#CC#CC(C)(C)C)CCNC(=O)CSc1c2ccccc2cc2ccccc12 [Example 26, N-[2-[N'-Pentyl-(6,6-dimethyl-2,4-heptadiynyl)amino]ethyl]-(9-anthrylthio)acetamide]",66
9,"CCCCCN(CC#CC#CC(C)(C)C)CCNC(=O)C[S+]([O-])c1cccc2ccccc12 (stereo not shown) [Example 29, N-[2-[N'-Pentyl-(6,6-dimethyl-2,4-heptadiynyl)amino]ethyl]-(1-naphthylsulfinyl)acetamide]",70
10,"CCCCCN(CC#CC#CC(C)(C)C)CCNC(=O)CS(=O)(=O)c1cccc2ccccc12 [Example 30, N-[2-[N'-Pentyl-(6,6-dimethyl-2,4-heptadiynyl)amino]ethyl]-(1-naphthylsulfonyl)acetamide]",75
11,"CCCCN(CC#CC#CC(C)(C)C)CCNC(=O)CSc1cccc2ccccc12 [Example 34, N-[2-[N'-Butyl-(6,6-dimethyl-2,4-heptadiynyl)amino]ethyl]-(1-naphthylthio)acetamide]",61
12,"CC(C)CCCN(CC#CC#CC(C)(C)C)CCNC(=O)CSc1cccc2ccccc12 [Example 36, N-[2-[N'-(4-Methylpentyl)-(6,6-dimethyl-2,4-heptadiynyl)amino]ethyl]-(1-naphthylthio)acetamide]",75
13,"CCCCC/C=C\C/C=C\CCCCCCCC(=O)NC(C)c1ccccc1 (stereo not drawn) [Melinamide, N-(α-methylbenzyl)linoleamide, reference compound]",15
14,"CN(C)c1ccc(NC(=O)N(Cc2cccc(CN(C(=O)Nc3ccc(N(C)C)cc3)C3CCCCCC3)c2)C2CCCCCC2)cc1.Cl.Cl [YM-17E, 1,3-bis[[1-cycloheptyl-3-(p-dimethylaminophenyl)ureido]methyl]-benzene dihydrochloride, reference compound]",50
